Experimental findings from ChEMBL document CHEMBL5113527, “First-in-Class Hydrazide-Based HDAC6 Selective Inhibitor with Potent Oral Anti-Inflammatory Activity by Attenuating NLRP3 Inflammasome Activation” (J Med Chem, 2022) are described below.

A value given as a limit tells only on which side of the number the result lay.

For one data set, the target named is Histone deacetylase 2 (Homo sapiens, UniProt Q92769). The data set can be described thus: Inhibition of recombinant HDAC2 (unknown origin) using Boc-Lys(acetyl)-AMC as substrate preincubated for 1 hr followed by substrate addition and measured after 2 hrs by fluorescence based microplate reader analysis.
Sequence of Histone deacetylase 2 (Q92769 whole entry): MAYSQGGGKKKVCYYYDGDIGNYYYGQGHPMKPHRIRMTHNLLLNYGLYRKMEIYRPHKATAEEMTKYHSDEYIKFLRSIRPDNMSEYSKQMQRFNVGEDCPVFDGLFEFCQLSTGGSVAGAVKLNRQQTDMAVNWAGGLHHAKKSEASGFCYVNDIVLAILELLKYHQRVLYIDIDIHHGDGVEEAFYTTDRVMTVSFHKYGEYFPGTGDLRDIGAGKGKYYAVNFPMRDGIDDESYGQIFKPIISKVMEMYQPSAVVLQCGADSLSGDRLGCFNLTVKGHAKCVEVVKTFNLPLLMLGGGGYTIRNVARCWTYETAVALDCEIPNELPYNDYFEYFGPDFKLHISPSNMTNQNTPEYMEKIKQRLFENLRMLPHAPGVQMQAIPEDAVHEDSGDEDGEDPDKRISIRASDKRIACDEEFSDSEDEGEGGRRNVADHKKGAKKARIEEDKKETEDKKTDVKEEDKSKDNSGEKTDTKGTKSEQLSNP
The target in a further data set is Histone deacetylase 1 (Homo sapiens, UniProt Q13547). The experiment in a line: Inhibition of recombinant HDAC1 (unknown origin) using Boc-Lys(acetyl)-AMC as substrate preincubated for 1 hr followed by substrate addition and measured after 2 hrs by fluorescence based microplate reader analysis.
Sequence of Histone deacetylase 1 (Q13547 whole entry): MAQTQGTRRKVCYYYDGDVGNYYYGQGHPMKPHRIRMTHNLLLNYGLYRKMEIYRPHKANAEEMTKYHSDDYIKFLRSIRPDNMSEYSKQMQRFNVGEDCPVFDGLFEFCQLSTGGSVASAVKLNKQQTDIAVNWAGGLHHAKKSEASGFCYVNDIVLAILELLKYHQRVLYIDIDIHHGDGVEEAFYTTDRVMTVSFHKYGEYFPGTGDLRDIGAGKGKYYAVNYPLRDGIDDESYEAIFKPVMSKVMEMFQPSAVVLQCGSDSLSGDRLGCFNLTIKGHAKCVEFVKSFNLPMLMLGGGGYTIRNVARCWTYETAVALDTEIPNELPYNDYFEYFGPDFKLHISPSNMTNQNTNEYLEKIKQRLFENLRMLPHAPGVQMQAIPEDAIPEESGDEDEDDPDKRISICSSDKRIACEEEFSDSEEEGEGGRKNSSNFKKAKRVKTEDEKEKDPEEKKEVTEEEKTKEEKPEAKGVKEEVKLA
The species named for a further data set is Homo sapiens. The experiment in a line: Selectivity index, ratio of IC50 for recombinant HDAC1(unknown origin) to IC50 for full length recombinant human HDAC6.
Data set [1] deals with T1, Protein deacetylase HDAC6 (Homo sapiens, UniProt Q9UBN7).
T1 sequence (Q9UBN7 whole entry): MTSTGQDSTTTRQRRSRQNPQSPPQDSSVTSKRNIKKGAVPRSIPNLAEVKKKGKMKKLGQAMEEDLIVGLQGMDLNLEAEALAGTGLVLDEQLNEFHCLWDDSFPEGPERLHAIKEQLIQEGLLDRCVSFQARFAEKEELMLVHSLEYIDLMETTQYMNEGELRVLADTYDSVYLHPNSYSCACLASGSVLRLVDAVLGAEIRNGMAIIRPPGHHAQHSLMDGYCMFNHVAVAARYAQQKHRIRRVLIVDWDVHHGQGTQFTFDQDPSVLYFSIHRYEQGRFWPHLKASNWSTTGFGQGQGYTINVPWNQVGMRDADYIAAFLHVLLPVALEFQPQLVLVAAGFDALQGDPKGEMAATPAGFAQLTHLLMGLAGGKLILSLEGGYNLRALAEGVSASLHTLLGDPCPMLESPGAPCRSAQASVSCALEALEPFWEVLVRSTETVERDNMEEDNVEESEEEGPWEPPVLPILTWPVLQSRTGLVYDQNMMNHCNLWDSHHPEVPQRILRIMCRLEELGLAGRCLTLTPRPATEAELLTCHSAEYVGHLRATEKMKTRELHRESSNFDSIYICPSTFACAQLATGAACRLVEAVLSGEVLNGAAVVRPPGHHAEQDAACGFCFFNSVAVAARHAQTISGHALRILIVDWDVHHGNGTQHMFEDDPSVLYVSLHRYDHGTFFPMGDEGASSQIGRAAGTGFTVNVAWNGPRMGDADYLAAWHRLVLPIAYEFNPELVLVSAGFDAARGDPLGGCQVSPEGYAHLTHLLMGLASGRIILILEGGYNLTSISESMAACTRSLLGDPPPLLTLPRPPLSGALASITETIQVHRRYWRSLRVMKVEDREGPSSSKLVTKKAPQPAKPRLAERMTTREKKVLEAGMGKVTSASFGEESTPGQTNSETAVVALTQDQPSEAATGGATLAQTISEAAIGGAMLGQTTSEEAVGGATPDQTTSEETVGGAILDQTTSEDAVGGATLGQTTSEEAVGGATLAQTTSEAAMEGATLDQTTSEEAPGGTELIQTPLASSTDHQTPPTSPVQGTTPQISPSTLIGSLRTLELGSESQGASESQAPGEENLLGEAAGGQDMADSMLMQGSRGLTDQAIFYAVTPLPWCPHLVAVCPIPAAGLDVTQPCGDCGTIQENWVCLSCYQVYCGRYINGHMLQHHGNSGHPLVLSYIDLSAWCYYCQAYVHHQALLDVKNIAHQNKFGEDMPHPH
The experiment in a line: Inhibition of recombinant HDAC6 (unknown origin) using Boc-Lys(acetyl)-AMC as substrate preincubated for 1 hr followed by substrate addition and measured after 2 hrs by fluorescence based microplate reader analysis.

Data set [2] addresses T2, Histone deacetylase 3 (Homo sapiens, UniProt O15379). The experiment in a line: Inhibition of recombinant HDAC3 (unknown origin) using Boc-Lys(acetyl)-AMC as substrate preincubated for 1 hr followed by substrate addition and measured after 2 hrs by fluorescence based microplate reader analysis.
Data set [3] is described as follows: Half life in CD-1 mouse at 5 mg/kg, iv measured after 0.083 to 24 hrs by LC-MS/MS analysis. Format: ADME, organism-based. Particulars: in vivo, time 0.083-24 hrs.
A short description of data set [4]: Inhibition of HDAC11(unknown origin) preincubated for 1 hr followed by substrate addition and measured after 2 hrs by fluorescence based microplate reader analysis. Further details: species or system Homo sapiens.
The nature of data set [5]: Cmax in CD-1 mouse at 5 mg/kg, iv measured after 0.083 to 24 hrs by LC-MS/MS analysis. Format: ADME, organism-based. Further details: dose 5 mg/kg, time 0.083-24 hrs, route iv. Particulars: in vivo.
The nature of data set [6]: AUC(0 to infinity) in CD-1 mouse at 5 mg/kg, iv measured after 0.083 to 24 hrs by LC-MS/MS analysis. Type of data set: ADME, organism-based. Further details: dose 5 mg/kg, time upper 24 hrs, time lower 0.083 hrs, route iv. Particulars: in vivo.
The target in data set [7] is T2, Histone deacetylase 3. The experiment in a line: Inhibition of HDAC3 (unknown origin).

T2 sequence (O15379 whole entry): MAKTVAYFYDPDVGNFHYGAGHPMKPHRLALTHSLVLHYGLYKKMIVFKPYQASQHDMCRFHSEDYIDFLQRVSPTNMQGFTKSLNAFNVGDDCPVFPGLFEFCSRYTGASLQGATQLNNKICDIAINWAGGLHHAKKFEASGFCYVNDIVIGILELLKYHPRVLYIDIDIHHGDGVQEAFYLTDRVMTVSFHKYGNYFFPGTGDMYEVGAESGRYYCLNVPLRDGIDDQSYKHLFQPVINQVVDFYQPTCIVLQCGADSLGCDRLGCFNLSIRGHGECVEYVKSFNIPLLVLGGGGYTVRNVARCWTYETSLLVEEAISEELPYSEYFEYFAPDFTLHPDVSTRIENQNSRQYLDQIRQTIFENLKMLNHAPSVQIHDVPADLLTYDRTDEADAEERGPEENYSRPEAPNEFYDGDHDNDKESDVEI

The IC50 is the concentration that inhibits the measured activity by half. For the compound `CCNNC(=O)c1ccc(CN2c3ccccc3Cc3ccccc32)cc1`, the IC50 at Histone deacetylase 2 was > 5 µM; at Histone deacetylase 1, 3.19 µM; in [1], 0.235 µM; at Histone deacetylase 3 [2], 1.43 µM. The Ratio IC50 in the data set filed under Homo sapiens is 13.
`CCNNC(=O)c1ccc(CN2c3ccccc3C=Cc3ccccc32)cc1`: the IC50 at Histone deacetylase 2 was > 5 µM; on Histone deacetylase 1, 2.3 µM; in [1] it was 0.042 µM; at Histone deacetylase 3 [2], 1.61 µM. Besides, in the data set listed under Homo sapiens, the Ratio IC50 was 54.
Regarding `CCNNC(=O)c1ccc(CNc2cccc3cccnc23)cc1`, the IC50 is 0.082 µM at Histone deacetylase 2, 0.659 µM on Histone deacetylase 1, 0.041 µM in [1] and 0.147 µM at Histone deacetylase 3 [2].
One may read the half-life as the time in which the quantity being followed falls by half. Low values mean rapid decline, high ones slow decline. As a reminder, the Cmax is the highest concentration seen after dosing. In general, AUC(0-inf) refers to total exposure, with the tail of the curve extrapolated. The compound `O=C(CCCCCCNC(=O)c1cnc(N(c2ccccc2)c2ccccc2)nc1)NO` [RICOLINOSTAT] had a half-life in data set [3] of 2.62 h. Besides, the IC50 in [4] was > 5 µM. The highest level in data set [5] (Cmax) was 372 ng/mL. The same compound gave an AUC(0-inf) in [6] of 342 ng·h/mL.
For `CCNNC(=O)c1ccc(CN2c3ccccc3C=Cc3ccc(F)cc32)cc1`, the IC50 on Histone deacetylase 2 came to 4.12 µM; on Histone deacetylase 1, 2.52 µM; in data set [1], 0.037 µM; on Histone deacetylase 3 [2], 0.563 µM. The Ratio IC50 in the data set listed under Homo sapiens amounted to 68.
Taken in the same sequence, the figures for `CCNNC(=O)c1ccc(CN2c3ccccc3Sc3cccnc32)cc1` were > 5 µM, 3.99 µM, 0.061 µM, 1.77 µM and 65.
`CCCNNC(=O)c1ccc(CNC(=O)c2ccccc2)cc1`: the 50% inhibitory concentration (IC50) on Histone deacetylase 1 is 0.013 µM; in [1], > 5 µM. In addition, in the data set filed under Homo sapiens, the Ratio IC50 amounted to 0.002.
Regarding `CCNNC(=O)c1ccc(CN2c3ccccc3CCc3ccccc32)cc1`, the IC50 at Histone deacetylase 2 was > 5 µM; on Histone deacetylase 1 it was > 5 µM; in [1] it was 0.25 µM; on Histone deacetylase 3 [2] it was 3.95 µM. Also, in the data set listed under Homo sapiens, the Ratio IC50 was > 20.
As for `CCNNC(=O)c1ccc(NC(=O)Nc2cccc3cccnc23)cc1`, the IC50 on Histone deacetylase 2 was 0.233 µM; at Histone deacetylase 1, 1.43 µM; in data set [1], 1.53 µM; on Histone deacetylase 3 [2] it was 0.446 µM. Besides, in the data set filed under Homo sapiens, the Ratio IC50 stood at 0.9.
For `CCNNC(=O)c1ccc(Cn2c3ccccc3c3ccccc32)cc1`, the IC50 is > 5 µM on Histone deacetylase 2, > 5 µM on Histone deacetylase 1, 0.361 µM in data set [1] and 2.33 µM on Histone deacetylase 3 [2]. Also, the Ratio IC50 in the data set filed under Homo sapiens was > 14.
As to `CCNNC(=O)c1ccc(CN2c3ccccc3C=Cc3nc(C)nc(C)c32)cc1`, the IC50 on Histone deacetylase 2 is > 5 µM; on Histone deacetylase 1, 2.26 µM; in [1], 0.047 µM; at Histone deacetylase 3 [2], 1.16 µM. Also, the Ratio IC50 in the data set listed under Homo sapiens is 48.
On to `CCNNC(=O)c1ccc(Cn2c3ccccc3c3cnccc32)cc1`, for which the half-inhibitory concentration (IC50) was 3.23 µM at Histone deacetylase 2, > 5 µM on Histone deacetylase 1, 0.11 µM in data set [1] and 4.61 µM at Histone deacetylase 3 [2]. Further, the Ratio IC50 in the data set listed under Homo sapiens is > 45.
`CCNNC(=O)c1ccc(Cn2nnnc2-c2cccs2)cc1`: the IC50 was determined as 0.041 µM at Histone deacetylase 2, 0.08 µM at Histone deacetylase 1, 0.016 µM in [1] and 0.026 µM at Histone deacetylase 3 [2]. Further, the Ratio IC50 in the data set listed under Homo sapiens is 5.
Taken in the same sequence, the figures for `CCNNC(=O)c1ccc(CN2c3ccccc3Sc3ccccc32)cc1` were > 5 µM, > 5 µM, 0.175 µM, 3.96 µM and > 28.
As to `CCNNC(=O)c1ccc(Cn2ccc3cc(C(=O)c4ccc(OC)cc4)ccc32)cc1`, the IC50 at Histone deacetylase 2 is 0.913 µM; at Histone deacetylase 1, 0.543 µM; in [1] it was 0.449 µM; on Histone deacetylase 3 [2], 0.217 µM. Moreover, the Ratio IC50 in the data set listed under Homo sapiens came to 1.2.
Consider `CCNNC(=O)c1ccc(CN2c3ccccc3Oc3ccccc32)cc1`, for which the IC50 on Histone deacetylase 2 is > 5 µM; at Histone deacetylase 1 it was > 5 µM; in data set [1], 0.843 µM; at Histone deacetylase 3 [2], 3.13 µM. The Ratio IC50 in the data set listed under Homo sapiens is > 6.
Take `CCNNC(=O)c1ccc(Cn2c3ccccc3c3ccncc32)cc1`: the IC50 is 4.38 µM at Histone deacetylase 2, > 5 µM at Histone deacetylase 1, 0.073 µM in data set [1] and > 5 µM at Histone deacetylase 3 [2]. The Ratio IC50 in the data set listed under Homo sapiens was > 68.
With `CCNNC(=O)c1ccc(CNC(=O)Nc2cccc3cccnc23)cc1`, the IC50 on Histone deacetylase 2 turned out to be 0.006 µM; at Histone deacetylase 1, 0.003 µM; in [1], 0.034 µM; on Histone deacetylase 3 [2], 0.0009 µM.
On to `CNNC(=O)c1ccc(CNC(=O)c2ccccc2)cc1`, for which the IC50 on Histone deacetylase 1 was determined as 4.62 µM; in data set [1], 0.878 µM. Further, the Ratio IC50 in the data set listed under Homo sapiens turned out to be 5.2.
As to `CCNNC(=O)c1coc(-c2ccc(Br)cc2)c1`, the IC50 (on Histone deacetylase 2; at Histone deacetylase 1; in data set [1]; on Histone deacetylase 3 [2]) was > 5 µM each time.
Turning to `CCCCN(Cc1ccc(C(=O)NNCC)cc1)C(=O)Nc1ccccc1`, the IC50 turned out to be 0.078 µM on Histone deacetylase 2, 0.341 µM on Histone deacetylase 1, 0.132 µM in data set [1] and 0.191 µM on Histone deacetylase 3 [2]. Also, the Ratio IC50 in the data set filed under Homo sapiens was 2.5.
As to `CCNNC(=O)c1ccc(CN2c3ccccc3C=Cc3ccc(C)cc32)cc1`, the IC50 at Histone deacetylase 2 was determined as 4.39 µM; on Histone deacetylase 1 it was 2.27 µM; in data set [1] it was 0.076 µM; at Histone deacetylase 3 [2] it was 0.469 µM. In the data set filed under Homo sapiens, the Ratio IC50 is 30.
On to `CCNNC(=O)c1ccc(Cn2c3ccccc3c3cccnc32)cc1`, for which the IC50 was 2.34 µM on Histone deacetylase 2, 2.86 µM on Histone deacetylase 1, 0.037 µM in data set [1] and 1.59 µM on Histone deacetylase 3 [2]. Moreover, in the data set filed under Homo sapiens, the Ratio IC50 was found to be 77.
For `CCNNC(=O)c1ccc(CNC(=O)c2ccccc2)cc1`, the IC50 at Histone deacetylase 1 came to 0.399 µM; in [1], 0.078 µM. The Ratio IC50 in the data set filed under Homo sapiens came out at 5.1.
At Histone deacetylase 3 [7], `CCCCN(Cc1ccc(C(=O)NO)cc1)C(=O)Nc1ccccc1` [NEXTURASTAT A] returned an IC50 of 6.08 µM.
As for `CCNNC(=O)c1ccc(Cn2c(=O)n(CCc3ccccc3)c(=O)c3ccccc32)cc1`, the IC50 stood at 1.2 µM on Histone deacetylase 2, 1.69 µM at Histone deacetylase 1, 0.145 µM in data set [1] and 0.077 µM at Histone deacetylase 3 [2]. Further, the Ratio IC50 in the data set listed under Homo sapiens turned out to be 11.
Taken in the same sequence, the figures for `CCNNC(=O)c1ccc(CN2c3ccccc3C=Cc3ccc(C(F)(F)F)cc32)cc1` were > 5 µM, > 5 µM, 0.173 µM, 1.85 µM and > 29.
The matching figures for `CCNNC(=O)c1ccc(Cn2c3c(c4ccccc42)CCCC3)cc1`: > 5 µM, > 5 µM, 0.455 µM, > 5 µM and > 11.
The matching figures for `CCCCN(Cc1ccc(C(=O)NNCC)cc1)C(=O)c1ccccc1`: 0.187 µM, 1.27 µM, 0.189 µM, 0.446 µM and 6.7.
On to `CCNNC(=O)c1csc(-c2cccnc2)n1`, for which the IC50 on Histone deacetylase 2 is 0.316 µM; at Histone deacetylase 1, > 5 µM; in data set [1] it was > 5 µM; at Histone deacetylase 3 [2] it was > 5 µM.
For `CCNNC(=O)c1ccc(CN2c3ccccc3CC(=O)c3ccccc32)cc1`, the IC50 was > 5 µM at Histone deacetylase 2, 3.92 µM at Histone deacetylase 1, 0.105 µM in data set [1] and > 5 µM on Histone deacetylase 3 [2]. The Ratio IC50 in the data set filed under Homo sapiens came out at 37.
